Assay results as given in patent publication US20120282359A1, “Compositions, Kits, and Methods for the Treatment of Conditions Associated with Elevated Cholesterol Levels” (priority 2003, published 2012).

Tested on: humans having risk factors for atherosclerosis
Assay: Example 4: double-blinded, randomized comparative study of treating elevated cholesterol levels
Type: in vivo, human
Settings: at eight weeks, versus baseline
Procedure: A comparative study is executed to determine the effects of methods of treating elevated cholesterol levels comprising administration of each of: Test Sample 1, simvastatin (20 mg) in conjunction with fruit juice; Test Sample 2, simvastatin (10 mg) in conjunction with fruit juice; and Test Sample 3, simvastatin (10 mg) in conjunction with psyllium (15 grams) and fruit juice.
The study is a double-blinded, randomized comparison. Sixty humans, aging from about 30 to about 80 years, are utilized for the study, all of which are determined as having risk factors for atherosclerosis. The humans are randomized to three treatment groups (Treatment Group 1, Treatment Group 2, and Treatment Group 3). Each human stops any lipid-lowering treatment, and baseline lipid levels are obtained.
Treatment Group 1 receives Test Sample 1; Treatment Group 2 receives Test Sample 2; and Treatment Group 3 receives Test Sample 3; all over an eight week period. Test Sample 1 is administered as a concurrent administration once daily. Test Sample 2 is administered as a concurrent administration once daily. For Test Sample 3, 15 grams of psyllium is divided over three daily doses, each with fruit juice, wherein the last administered dose per day is concurrently administered with the simvastatin.
At eight weeks, levels of LDL-cholesterol, total cholesterol, and triglycerides are measured. Triglycerides are found not to be influenced based upon treatment group. However, on average, LDL-cholesterol and total cholesterol is decreased by approximately 29% in Treatment Group 1, LDL-cholesterol and total cholesterol is decreased by approximately 33% in Treatment Group 2, and LDL-cholesterol and total cholesterol is decreased by approximately 38% in Treatment Group 3.

| Structure (SMILES) | LDL-cholesterol decreased, on average | total cholesterol decreased, on average |
| --- | --- | --- |
| CCC(C)(C)C(=O)O[C@H]1C[C@@H](C)C=C2C=C[C@H](C)[C@H](CC[C@@H]3C[C@@H](O)CC(=O)O3)[C@H]21 [Test Sample 1, simvastatin] | approximately 29% | approximately 29% |
| CCC(C)(C)C(=O)O[C@H]1C[C@@H](C)C=C2C=C[C@H](C)[C@H](CC[C@@H]3C[C@@H](O)CC(=O)O3)[C@H]21 [Test Sample 2, simvastatin] | approximately 33% | approximately 33% |
